Test results published in ChEMBL document CHEMBL5143734, “Seco-Lupane Triterpene Derivatives Induce Ferroptosis through GPX4/ACSL4 Axis and Target Cyclin D1 to Block the Cell Cycle” (J Med Chem, 2022).

Experiments:
Format in all cases: functional, cell-based
MCF7 = assay: Cytotoxicity against human MCF7 cells assessed as reduction in cell viability by CCK-8 assay
A549 = assay: Cytotoxicity against human A549 cells assessed as reduction in cell viability by CCK-8 assay
HepG2 = assay: Cytotoxicity against human HepG2 cells assessed as reduction in cell viability by CCK-8 assay
PC-3M = assay: Cytotoxicity against human PC-3M cells assessed as reduction in cell viability by CCK-8 assay
PANC-1 = assay: Cytotoxicity against human PANC-1 cells assessed as reduction in cell viability by CCK-8 assay

SMILES	IC50 (MCF7) [µM]	IC50 (A549) [µM]	IC50 (HepG2) [µM]	IC50 (PC-3M) [µM]	IC50 (PANC-1) [µM]
C=C(C)[C@@H]1CC[C@]2(C(=O)OCCCCCCCCCCn3ccnc3)CC[C@]3(C)[C@H](C[C@@H](O)[C@@H]4[C@@]5(C)C(CC(=O)OC)OC(C)(C)C5CC[C@]43C)[C@@H]12 (stereo not given in full)	36.1	22.4	6.83	14	14
C=C(C)[C@@H]1CC[C@]2(C(=O)OCCCCn3cc(CCN)c4ccccc43)CC[C@]3(C)[C@H](C[C@H]4OC(=O)C[C@@H](O)[C@]5(C)[C@@H]4[C@@]3(C)CC[C@H]5C(=C)C)[C@@H]12	11.7	6.72	1.02	6.64	8.73
C=C(C)[C@@H]1CC[C@]2(C(=O)OCCCCBr)CC[C@]3(C)[C@H](C[C@H]4OC(=O)C[C@@H](O)[C@]5(C)[C@@H]4[C@@]3(C)CC[C@H]5C(=C)C)[C@@H]12	> 200	89	124	82.2	200
C=C(C)[C@@H]1CC[C@]2(C(=O)OCCCCCBr)CC[C@]3(C)[C@H](C[C@H]4OC(=O)C[C@@H](O)[C@]5(C)[C@@H]4[C@@]3(C)CC[C@H]5C(=C)C)[C@@H]12	56.1	19.8	14.3	14.5	43.1
C=C(C)[C@@H]1CC[C@]2(C(=O)OCCCCn3ccnc3C)CC[C@]3(C)[C@H](C[C@@H](O)[C@@H]4[C@@]5(C)C(CC(=O)OC)OC(C)(C)C5CC[C@]43C)[C@@H]12 (stereo not given in full)	67.3	31.4	21.7	36	48.3
C=C(C)[C@@H]1CC[C@]2(C(=O)OCCCCCCCCCCBr)CC[C@]3(C)[C@H](C[C@@H](O)[C@@H]4[C@@]5(C)C(CC(=O)OC)OC(C)(C)C5CC[C@]43C)[C@@H]12 (stereo not given in full)	88.5	34.6	15.1	16.6	15.1
C=C(C)[C@@H]1CC[C@]2(C(=O)OCCCCCCn3cnc(C)c3)CC[C@]3(C)[C@H](C[C@H]4OC(=O)C[C@@H](O)[C@]5(C)[C@@H]4[C@@]3(C)CC[C@H]5C(=C)C)[C@@H]12	44.9	14.2	3.64	12.2	13.3
C=C(C)[C@@H]1CC[C@]2(C(=O)OCCCCCCCCCCn3cncn3)CC[C@]3(C)[C@H](C[C@@H](O)[C@@H]4[C@@]5(C)C(CC(=O)OC)OC(C)(C)C5CC[C@]43C)[C@@H]12 (stereo not given in full)	71	77.8	36.4	23.5	104
C=C(C)[C@@H]1CC[C@]2(C(=O)OCCCn3ccnc3C)CC[C@]3(C)[C@H](C[C@H]4OC(=O)C[C@@H](O)[C@]5(C)[C@@H]4[C@@]3(C)CC[C@H]5C(=C)C)[C@@H]12	46.8	21.5	14.6	16	24.8
C=C(C)[C@@H]1CC[C@]2(C(=O)OCCCCCCn3cncn3)CC[C@]3(C)[C@H](C[C@H]4OC(=O)C[C@@H](O)[C@]5(C)[C@@H]4[C@@]3(C)CC[C@H]5C(=C)C)[C@@H]12	103	24.6	23.8	56	19.5
C=C(C)[C@@H]1CC[C@]2(C(=O)OCCCCCn3ccnc3CC)CC[C@]3(C)[C@H](C[C@H]4OC(=O)C[C@@H](O)[C@]5(C)[C@@H]4[C@@]3(C)CC[C@H]5C(=C)C)[C@@H]12	50.2	14.3	6.1	12.5	12.8
